Measurements: patent publication US10835533B2, “1 -((3S,4R)-4-(3-fluorophenyl)-1-(2-methoxyethyl)pyrrolidin-3-yl)-3-(4-methyl-3-(2-methylpyrimidin-5-yl)-1-phenyl-1H-pyrazol-5-yl)urea as a TrkA kinase inhibitor” (Array BioPharma Inc., priority 2014, dated 2020)

Key:
Experiment in all cases: KinaseProfiler kinase profiling
Type in all cases: biochemical
Details in all cases: 10 μM, ATP near Km
Ros = molecular target: T1, Ros (Homo sapiens, UniProt P08922)
T1 construct: purchased Millipore, Inc. (KinaseProfiler service)
In short: (§1)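 Duplicate single-point measurements (10 μM compound) were performed with near-Km ATP for every kinase in the panel. The reported number is the two-replicate mean, expressed as percent of control.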

Fes = molecular target: T2, Fes (Homo sapiens, UniProt P07332)
T2 construct: purchased Millipore, Inc. (KinaseProfiler service)
In short: as §1

PAK5 = molecular target: T3, PAK5 (Homo sapiens, UniProt Q9P286)
T3 construct: purchased Millipore, Inc. (KinaseProfiler service)
In short: as §1

ROCK-I = molecular target: T4, ROCK-I (Homo sapiens, UniProt Q13464)
T4 construct: purchased Millipore, Inc. (KinaseProfiler service)
In short: as §1

CHK1 = molecular target: T5, CHK1 (Homo sapiens, UniProt O14757)
T5 construct: purchased Millipore, Inc. (KinaseProfiler service)
In short: as §1

CK2alpha2 = molecular target: T6, CK2alpha2 (Homo sapiens, UniProt P19784)
T6 construct: purchased Millipore, Inc. (KinaseProfiler service)
In short: as §1

Syk = molecular target: T7, Syk (Homo sapiens, UniProt P43405)
T7 construct: purchased Millipore, Inc. (KinaseProfiler service)
In short: as §1

MAPKAP-K3 = molecular target: T8, MAPKAP-K3 (Homo sapiens, UniProt Q16644)
T8 construct: purchased Millipore, Inc. (KinaseProfiler service)
In short: as §1

TSSK2 = molecular target: T9, TSSK2 (Homo sapiens, UniProt Q96PF2)
T9 construct: purchased Millipore, Inc. (KinaseProfiler service)
In short: as §1

MSK2 = molecular target: T10, MSK2 (Homo sapiens, UniProt O75676)
T10 construct: purchased Millipore, Inc. (KinaseProfiler service)
In short: as §1

NLK = molecular target: T11, NLK (Homo sapiens, UniProt Q9UBE8)
T11 construct: purchased Millipore, Inc. (KinaseProfiler service)
In short: as §1

PKAC-alpha = molecular target: T12, PKAC-alpha (Homo sapiens, UniProt P17612)
T12 construct: purchased Millipore, Inc. (KinaseProfiler service)
In short: as §1

DYRK2 = molecular target: T13, DYRK2 (Homo sapiens, UniProt Q92630)
T13 construct: purchased Millipore, Inc. (KinaseProfiler service)
In short: as §1

PKCdelta = molecular target: T14, PKCdelta (Homo sapiens, UniProt Q05655)
T14 construct: purchased Millipore, Inc. (KinaseProfiler service)
In short: as §1

PKCalpha = molecular target: T15, PKCalpha (Homo sapiens, UniProt P17252)
T15 construct: purchased Millipore, Inc. (KinaseProfiler service)
In short: as §1

EphA1 = molecular target: T16, EphA1 (Homo sapiens, UniProt P21709)
T16 construct: purchased Millipore, Inc. (KinaseProfiler service)
In short: as §1

PrKX = molecular target: T17, PrKX (Homo sapiens, UniProt P51817)
T17 construct: purchased Millipore, Inc. (KinaseProfiler service)
In short: as §1

BrSK2 = molecular target: T18, BrSK2 (Homo sapiens, UniProt Q8IWQ3)
T18 construct: purchased Millipore, Inc. (KinaseProfiler service)
In short: as §1

CAMK2g = molecular target: T19, CAMK2g (Homo sapiens, UniProt Q13555)
T19 construct: purchased Millipore, Inc. (KinaseProfiler service)
In short: as §1

p38beta = molecular target: T20, p38beta (Homo sapiens, UniProt Q15759)
T20 construct: purchased Millipore, Inc. (KinaseProfiler service)
In short: as §1

CDK5/p35 = molecular target: T21, CDK5/p35 (Homo sapiens, UniProt Q00535)
T21 construct: purchased Millipore, Inc. (KinaseProfiler service)
In short: as §1

Rsk4 = molecular target: T22, Rsk4 (Homo sapiens, UniProt Q9UK32)
T22 construct: purchased Millipore, Inc. (KinaseProfiler service)
In short: as §1

ULK3 = molecular target: T23, ULK3 (Homo sapiens, UniProt Q6PHR2)
T23 construct: purchased Millipore, Inc. (KinaseProfiler service)
In short: as §1

DCAMKL2 = molecular target: T24, DCAMKL2 (Homo sapiens, UniProt Q8N568)
T24 construct: purchased Millipore, Inc. (KinaseProfiler service)
In short: as §1

STK33 = molecular target: T25, STK33 (Homo sapiens, UniProt Q9BYT3)
T25 construct: purchased Millipore, Inc. (KinaseProfiler service)
In short: as §1

CDK5/p25 = molecular target: T26, CDK5/p25 (Homo sapiens, UniProt Q00535)
T26 construct: purchased Millipore, Inc. (KinaseProfiler service)
In short: as §1

ROCK-II = molecular target: T27, ROCK-II (Homo sapiens, UniProt O75116)
T27 construct: purchased Millipore, Inc. (KinaseProfiler service)
In short: as §1

Pim-3 = molecular target: T28, Pim-3 (Homo sapiens, UniProt Q86V86)
T28 construct: purchased Millipore, Inc. (KinaseProfiler service)
In short: as §1

PKCtheta = molecular target: T29, PKCtheta (Homo sapiens, UniProt Q04759)
T29 construct: purchased Millipore, Inc. (KinaseProfiler service)
In short: as §1

AKT1 = molecular target: T30, AKT1 (Homo sapiens, UniProt P31749)
T30 construct: purchased Millipore, Inc. (KinaseProfiler service)
In short: as §1

mTOR/FKBP12 = molecular target: T31, mTOR/FKBP12 (Homo sapiens, UniProt P42345)
T31 construct: purchased Millipore, Inc. (KinaseProfiler service)
In short: as §1

BrSK1 = molecular target: T32, BrSK1 (Homo sapiens, UniProt Q8TDC3)
T32 construct: purchased Millipore, Inc. (KinaseProfiler service)
In short: as §1

FGFR3 = molecular target: T33, FGFR3 (Homo sapiens, UniProt P22607)
T33 construct: purchased Millipore, Inc. (KinaseProfiler service)
In short: as §1

Fgr = molecular target: T34, Fgr (Homo sapiens, UniProt P09769)
T34 construct: purchased Millipore, Inc. (KinaseProfiler service)
In short: as §1

MARK2 = molecular target: T35, MARK2 (Homo sapiens, UniProt Q7KZI7)
T35 construct: purchased Millipore, Inc. (KinaseProfiler service)
In short: as §1

Plk3 = molecular target: T36, Plk3 (Homo sapiens, UniProt Q9H4B4)
T36 construct: purchased Millipore, Inc. (KinaseProfiler service)
In short: as §1

PAK2 = molecular target: T37, PAK2 (Homo sapiens, UniProt Q13177)
T37 construct: purchased Millipore, Inc. (KinaseProfiler service)
In short: as §1

MAPKAP-K2 = molecular target: T38, MAPKAP-K2 (Homo sapiens, UniProt P49137)
T38 construct: purchased Millipore, Inc. (KinaseProfiler service)
In short: as §1

DRAK1 = molecular target: T39, DRAK1 (Homo sapiens, UniProt Q9UEE5)
T39 construct: purchased Millipore, Inc. (KinaseProfiler service)
In short: as §1

IGF-1R = molecular target: T40, IGF-1R (Homo sapiens, UniProt P08069)
T40 construct: purchased Millipore, Inc. (KinaseProfiler service)
In short: as §1

SGK3 = molecular target: T41, SGK3 (Homo sapiens, UniProt Q96BR1)
T41 construct: purchased Millipore, Inc. (KinaseProfiler service)
In short: as §1

T27 sequence (O75116 whole entry): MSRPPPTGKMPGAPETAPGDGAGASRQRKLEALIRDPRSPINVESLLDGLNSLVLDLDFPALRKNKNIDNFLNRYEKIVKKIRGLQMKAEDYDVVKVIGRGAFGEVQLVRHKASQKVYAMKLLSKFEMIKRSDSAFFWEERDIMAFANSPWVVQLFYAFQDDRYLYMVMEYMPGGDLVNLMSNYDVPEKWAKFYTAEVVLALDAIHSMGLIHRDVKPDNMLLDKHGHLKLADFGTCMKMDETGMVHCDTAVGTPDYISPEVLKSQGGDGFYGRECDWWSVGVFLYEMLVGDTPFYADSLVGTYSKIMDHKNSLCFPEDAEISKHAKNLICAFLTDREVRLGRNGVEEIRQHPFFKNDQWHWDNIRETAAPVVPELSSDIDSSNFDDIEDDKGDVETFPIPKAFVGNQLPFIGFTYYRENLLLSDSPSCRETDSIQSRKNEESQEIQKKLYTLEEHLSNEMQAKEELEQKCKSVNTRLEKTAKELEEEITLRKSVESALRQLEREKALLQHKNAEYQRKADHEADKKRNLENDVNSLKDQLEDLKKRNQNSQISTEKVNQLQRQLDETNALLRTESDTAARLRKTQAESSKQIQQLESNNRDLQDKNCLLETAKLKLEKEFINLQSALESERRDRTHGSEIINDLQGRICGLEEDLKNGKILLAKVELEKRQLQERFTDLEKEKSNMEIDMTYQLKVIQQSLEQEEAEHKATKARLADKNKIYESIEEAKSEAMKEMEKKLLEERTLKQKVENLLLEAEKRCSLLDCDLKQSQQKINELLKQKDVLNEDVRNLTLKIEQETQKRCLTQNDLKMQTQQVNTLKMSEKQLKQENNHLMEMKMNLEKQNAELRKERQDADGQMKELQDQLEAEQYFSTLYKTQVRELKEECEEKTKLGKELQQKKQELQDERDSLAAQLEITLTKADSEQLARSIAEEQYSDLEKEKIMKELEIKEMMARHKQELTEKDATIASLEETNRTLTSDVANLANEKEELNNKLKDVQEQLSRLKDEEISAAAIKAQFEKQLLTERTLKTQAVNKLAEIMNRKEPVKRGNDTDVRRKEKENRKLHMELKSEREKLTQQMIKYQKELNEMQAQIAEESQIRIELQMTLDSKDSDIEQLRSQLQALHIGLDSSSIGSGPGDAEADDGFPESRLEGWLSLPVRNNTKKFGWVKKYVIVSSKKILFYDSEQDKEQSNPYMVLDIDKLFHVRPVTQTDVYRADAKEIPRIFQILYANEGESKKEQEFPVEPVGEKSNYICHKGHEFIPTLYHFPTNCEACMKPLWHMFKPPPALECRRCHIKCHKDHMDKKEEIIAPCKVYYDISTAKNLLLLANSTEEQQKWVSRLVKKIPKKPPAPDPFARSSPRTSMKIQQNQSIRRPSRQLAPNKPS
T26 sequence (Q00535 whole entry): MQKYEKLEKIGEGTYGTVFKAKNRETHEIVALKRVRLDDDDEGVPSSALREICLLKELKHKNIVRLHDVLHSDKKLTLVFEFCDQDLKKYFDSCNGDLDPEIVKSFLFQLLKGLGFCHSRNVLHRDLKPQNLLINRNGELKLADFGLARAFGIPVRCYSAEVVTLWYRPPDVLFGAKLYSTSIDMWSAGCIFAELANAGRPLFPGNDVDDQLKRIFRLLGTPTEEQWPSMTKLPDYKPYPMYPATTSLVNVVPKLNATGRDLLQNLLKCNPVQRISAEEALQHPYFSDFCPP
T26 sequence (Q15078 99-307 partner limits assumed): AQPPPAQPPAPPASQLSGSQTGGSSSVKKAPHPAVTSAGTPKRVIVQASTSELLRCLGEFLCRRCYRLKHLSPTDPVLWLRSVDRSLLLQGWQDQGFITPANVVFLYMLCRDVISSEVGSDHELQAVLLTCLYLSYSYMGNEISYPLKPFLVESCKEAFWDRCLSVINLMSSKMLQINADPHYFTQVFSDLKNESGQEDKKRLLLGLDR
T21 sequence (Q00535 whole entry): as the sequence (Q00535 whole entry) above
T21 sequence (Q15078 whole entry partner): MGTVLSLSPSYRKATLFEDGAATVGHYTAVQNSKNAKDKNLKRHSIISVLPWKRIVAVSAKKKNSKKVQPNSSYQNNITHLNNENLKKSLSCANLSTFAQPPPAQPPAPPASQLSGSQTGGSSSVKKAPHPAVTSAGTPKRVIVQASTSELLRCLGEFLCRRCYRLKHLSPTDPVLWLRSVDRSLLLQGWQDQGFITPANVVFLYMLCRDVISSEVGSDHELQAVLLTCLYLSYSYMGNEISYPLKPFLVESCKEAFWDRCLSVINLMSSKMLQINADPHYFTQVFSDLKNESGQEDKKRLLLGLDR
T17 sequence (P51817 whole entry): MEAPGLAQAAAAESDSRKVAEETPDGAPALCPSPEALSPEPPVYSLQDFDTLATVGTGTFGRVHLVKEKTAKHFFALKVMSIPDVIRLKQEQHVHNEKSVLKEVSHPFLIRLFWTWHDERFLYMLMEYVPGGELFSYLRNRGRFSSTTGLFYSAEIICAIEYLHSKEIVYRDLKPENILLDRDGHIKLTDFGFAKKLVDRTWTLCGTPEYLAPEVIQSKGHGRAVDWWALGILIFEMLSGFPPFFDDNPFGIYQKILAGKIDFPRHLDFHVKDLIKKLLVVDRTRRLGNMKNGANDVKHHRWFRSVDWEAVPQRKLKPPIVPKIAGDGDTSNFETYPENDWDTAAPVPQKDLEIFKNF
T23 sequence (Q6PHR2 whole entry): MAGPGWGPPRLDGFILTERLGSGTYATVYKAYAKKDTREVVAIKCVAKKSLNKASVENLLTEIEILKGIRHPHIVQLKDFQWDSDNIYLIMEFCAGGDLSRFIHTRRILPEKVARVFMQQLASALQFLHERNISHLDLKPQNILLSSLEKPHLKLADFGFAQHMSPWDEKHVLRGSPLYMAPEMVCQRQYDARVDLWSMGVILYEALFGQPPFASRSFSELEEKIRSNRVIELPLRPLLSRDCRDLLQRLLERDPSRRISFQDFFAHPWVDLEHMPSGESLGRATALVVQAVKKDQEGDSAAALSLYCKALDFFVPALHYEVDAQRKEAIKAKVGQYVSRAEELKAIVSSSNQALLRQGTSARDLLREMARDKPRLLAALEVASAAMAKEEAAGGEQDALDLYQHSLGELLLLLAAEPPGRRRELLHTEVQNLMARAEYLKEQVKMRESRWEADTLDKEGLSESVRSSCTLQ
T34 sequence (P09769 whole entry): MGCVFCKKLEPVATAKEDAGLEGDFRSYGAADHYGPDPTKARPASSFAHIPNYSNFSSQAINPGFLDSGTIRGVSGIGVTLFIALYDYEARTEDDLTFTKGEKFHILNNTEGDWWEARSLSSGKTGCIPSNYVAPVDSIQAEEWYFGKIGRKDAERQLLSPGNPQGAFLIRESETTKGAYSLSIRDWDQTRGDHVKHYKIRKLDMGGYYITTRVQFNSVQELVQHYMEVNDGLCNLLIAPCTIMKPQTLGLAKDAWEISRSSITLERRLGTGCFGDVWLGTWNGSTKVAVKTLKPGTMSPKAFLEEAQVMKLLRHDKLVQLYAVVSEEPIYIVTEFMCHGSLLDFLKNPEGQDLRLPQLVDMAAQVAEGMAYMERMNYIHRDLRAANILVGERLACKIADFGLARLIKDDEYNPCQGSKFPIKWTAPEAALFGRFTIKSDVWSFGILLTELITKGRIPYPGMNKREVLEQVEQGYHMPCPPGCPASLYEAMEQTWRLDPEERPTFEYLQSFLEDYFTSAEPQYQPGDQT
T8 sequence (Q16644 whole entry): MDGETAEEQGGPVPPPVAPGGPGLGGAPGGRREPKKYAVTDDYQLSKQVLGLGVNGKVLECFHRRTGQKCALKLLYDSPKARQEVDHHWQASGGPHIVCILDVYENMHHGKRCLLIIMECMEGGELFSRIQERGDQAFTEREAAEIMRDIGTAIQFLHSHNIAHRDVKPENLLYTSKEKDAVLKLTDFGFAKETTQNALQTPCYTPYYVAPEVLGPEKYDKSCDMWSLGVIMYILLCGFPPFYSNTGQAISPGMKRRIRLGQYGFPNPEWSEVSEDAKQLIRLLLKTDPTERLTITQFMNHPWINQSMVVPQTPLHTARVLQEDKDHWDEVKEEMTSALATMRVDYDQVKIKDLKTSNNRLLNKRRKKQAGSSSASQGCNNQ
T37 sequence (Q13177 whole entry): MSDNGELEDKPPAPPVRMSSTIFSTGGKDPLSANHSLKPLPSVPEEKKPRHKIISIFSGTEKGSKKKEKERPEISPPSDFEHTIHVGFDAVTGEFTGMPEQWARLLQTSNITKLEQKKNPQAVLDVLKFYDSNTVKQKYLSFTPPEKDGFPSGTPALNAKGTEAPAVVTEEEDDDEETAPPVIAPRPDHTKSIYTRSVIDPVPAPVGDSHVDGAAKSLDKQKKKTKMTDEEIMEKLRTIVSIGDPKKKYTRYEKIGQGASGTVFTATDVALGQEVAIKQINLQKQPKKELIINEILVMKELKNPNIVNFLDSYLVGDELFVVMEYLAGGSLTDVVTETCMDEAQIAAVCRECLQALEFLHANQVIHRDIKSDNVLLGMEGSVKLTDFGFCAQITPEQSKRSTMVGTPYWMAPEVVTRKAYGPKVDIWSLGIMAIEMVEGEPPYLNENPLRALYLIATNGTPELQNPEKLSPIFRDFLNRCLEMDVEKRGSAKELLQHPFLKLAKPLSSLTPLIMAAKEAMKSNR

Avg POC (Ros): 112.5 POC
Avg POC (Fes): 102.5 POC
Avg POC (PAK5): 111 POC
Avg POC (ROCK-I): 98.5 POC
Avg POC (CHK1): 109 POC
Avg POC (CK2alpha2): 106 POC
Avg POC (Syk): 95.5 POC
Avg POC (MAPKAP-K3): 99 POC
Avg POC (TSSK2): 108.5 POC
Avg POC (MSK2): 116.5 POC
Avg POC (NLK): 94.5 POC
Avg POC (PKAC-alpha): 129.5 POC
Avg POC (DYRK2): 102 POC
Avg POC (PKCdelta): 102 POC
Avg POC (PKCalpha): 98.5 POC
Avg POC (EphA1): 94.5 POC
Avg POC (PrKX): 115.5 POC
Avg POC (BrSK2): 104 POC
Avg POC (CAMK2g): 97 POC
Avg POC (p38beta): 102 POC
Avg POC (CDK5/p35): 97 POC
Avg POC (Rsk4): 105.5 POC
Avg POC (ULK3): 107.5 POC
Avg POC (DCAMKL2): 135 POC
Avg POC (STK33): 101 POC
Avg POC (CDK5/p25): 115 POC
Avg POC (ROCK-II): 105.5 POC
Avg POC (Pim-3): 106.5 POC
Avg POC (PKCtheta): 128.5 POC
Avg POC (AKT1): 104 POC
Avg POC (mTOR/FKBP12): 105.5 POC
Avg POC (BrSK1): 98 POC
Avg POC (FGFR3): 108 POC
Avg POC (Fgr): 106 POC
Avg POC (MARK2): 109.5 POC
Avg POC (Plk3): 100.5 POC
Avg POC (PAK2): 105.5 POC
Avg POC (MAPKAP-K2): 115 POC
Avg POC (DRAK1): 129.5 POC
Avg POC (IGF-1R): 80.5 POC
Avg POC (SGK3): 112.5 POC
SMILES: COCCN1C[C@@H](NC(=O)Nc2c(C)c(-c3cnc(C)nc3)nn2-c2ccccc2)[C@H](c2cccc(F)c2)C1 [Compound 1, 1-((3S,4R)-4-(3-fluorophenyl)-1-(2-methoxyethyl)pyrrolidin-3-yl)-3-(4-methyl-3-(2-methylpyrimidin-5-yl)-1-phenyl-1H-pyrazol-5-yl)urea]
